The text below walks through data of patent publication US11319299B2, “Substituted carboxamides as inhibitors of WDR5 protein-protein binding” (PROPELLON THERAPEUTICS INC., priority 2016, dated 2022).

For orientation: Kd means the free concentration of one partner at which half of the binding sites on the other are occupied at equilibrium, for simple one-to-one binding.

One assay concerns the target WDR5 (Homo sapiens (Human), UniProt P61964). Kind of assay: Surface Plasmon Resonance (SPR) assay, KD and residence time. In kind it is binding. As to conditions: surface plasmon resonance (SPR) assay; read-out: WDR5 binding affinity (KD). A general note: In SPR one partner is held on a chip, and binding of the other changes the refractive index at the surface.
`CC1CN(c2cc(F)c(-c3ccc(N4CCN(C)CC4)cc3)cc2NC(=O)c2cn(C)c(=O)cc2C(F)(F)F)CCN1C` (stereo in doubt) [Example 302, N-[4-fluoro-5-[4-(4-methylpiperazin-1-yl)phenyl]-2-[(3R)-3,4-dimethylpiperazin-1-yl]phenyl]-1-methyl-6-oxo-4-(trifluoromethyl)pyridine-3-carboxamide]: the Kd is 5.37 nM.
For `C[C@@H]1CC(N2CC=C(c3cc(NC(=O)c4c[nH]c(=O)cc4C(F)(F)F)c(N4C[C@@H](C)N(C)[C@@H](C)C4)cc3F)CC2)C[C@H](C)O1` (stereo partly drawn) [Example 289, N-[4-fluoro-5-[1-[(2R,6S)-2,6-dimethyloxan-4-yl]-3,6-dihydro-2H-pyridin-4-yl]-2-[(3S,5R)-3,4,5-trimethylpiperazin-1-yl]phenyl]-6-oxo-4-(trifluoromethyl)-1H-pyridine-3-carboxamide], the Kd stood at 3.74 nM.
For `COc1ncc(-c2cc(NC(=O)c3c[nH]c(=O)cc3C(F)(F)F)c(N3C[C@@H](C)N(C)[C@@H](C)C3)cc2F)cc1C(F)(F)F` [Example 136, N-[4-fluoro-5-[6-methoxy-5-(trifluoromethyl)pyridin-3-yl]-2-[(3R,5S)-3,4,5-trimethylpiperazin-1-yl]phenyl]-6-oxo-4-(trifluoromethyl)-1H-pyridine-3-carboxamide], the Kd was 0.463 nM.
Same read-out and setting: in the case of `CC1CN(c2cc(F)c(-c3cnc(N4CCOCC4)nc3)cc2NC(=O)c2cc[nH]n2)CCN1C` (stereo in doubt) [Example 193, N-[4-fluoro-5-(2-morpholin-4-ylpyrimidin-5-yl)-2-[(3R)-3,4-dimethylpiperazin-1-yl]phenyl]-1H-pyrazole-3-carboxamide] it was 592 nM; in that of `CN(C)[C@@H]1CCN(c2cc(F)c(-c3cnc(N4CCOCC4)nc3)cc2NC(=O)c2cc(Cl)cc(Cl)c2)C1` [Example 168, 3,5-dichloro-N-[4-fluoro-5-(2-morpholin-4-ylpyrimidin-5-yl)-2-[(3R)-3-(dimethylamino)pyrrolidin-1-yl]phenyl]benzamide], 30 nM; in that of `C[C@@H]1CN(c2cc(F)c(C3=CC4CCC(C3)N4C(=O)OC(C)(C)C)cc2NC(=O)c2cn(C)c(=O)cc2C(F)(F)F)C[C@H](C)N1C` (mixture of isomers) [Example 327, tert-butyl 3-[2-fluoro-5-[[-methyl-6-oxo-4-(trifluoromethyl)pyridine-3-carbonyl]amino]-4-[(3R,5S)-3,4,5-trimethylpiperazin-1-yl]phenyl]-8-azabicyclo[3.2.1]oct-2-ene-8-carboxylate], 123 nM.
As for `CC1CN(c2cc(F)c(-c3cnc(N4CCN(C)CC4)nc3)cc2NC(=O)c2ccc(F)cc2C(F)(F)F)CCN1C` (stereo in doubt) [Example 316, 4-fluoro-N-[4-fluoro-5-[2-(4-methylpiperazin-1-yl)pyrimidin-5-yl]-2-[(3R)-3,4-dimethylpiperazin-1-yl]phenyl]-2-(trifluoromethyl)benzamide], the dissociation constant (Kd) was 0.989 nM.

Still in this assay, the particulars now being: surface plasmon resonance (SPR); read-out: WDR5 binding affinity (KD).
Turning to `CC(C)OC(=O)N1CCC=C(c2cc(NC(=O)c3c[nH]c(=O)cc3C(F)(F)F)c(N3C[C@@H](C)N(C)[C@@H](C)C3)cc2F)CC1` [Example 674, Propan-2-yl 4-[2-fluoro-5-[[6-oxo-4-(trifluoromethyl)-1H-pyridine-3-carbonyl]amino]-4-[(3R,5S)-3,4,5-trimethylpiperazin-1-yl]phenyl]-2,3,6,7-tetrahydroazepine-1-carboxylate], the dissociation constant (Kd) came out at 4.94 nM.
On to `C[C@@H]1CN(c2cc(F)c(-c3ccnc(N4CCO[C@@H](C)C4)n3)cc2NC(=O)c2cn(C)c(=O)cc2C(F)(F)F)C[C@H](C)N1C` (racemic) [Example 694, N-[4-fluoro-5-[2-[(2R)-2-methylmorpholin-4-yl]pyrimidin-4-yl]-2-[(3S,5R)-3,4,5-trimethylpiperazin-1-yl]phenyl]-1-methyl-6-oxo-4-(trifluoromethyl)pyridine-3-carboxamide], for which the dissociation constant (Kd) amounted to 4.92 nM.
On to `C[C@@H]1CN(c2cc(F)c(-c3ncc(C#N)s3)cc2NC(=O)c2c[nH]c(=O)cc2C(F)(F)F)C[C@H](C)N1C` [Example 447, N-[5-(5-cyano-1,3-thiazol-2-yl)-4-fluoro-2-[(3R,5S)-3,4,5-trimethylpiperazin-1-yl]phenyl]-6-oxo-4-(trifluoromethyl)-1H-pyridine-3-carboxamide], for which the equilibrium dissociation constant (Kd) was 2.88 nM.
`C[C@@H]1CN(c2cc(F)c(-c3cnc(N4CCC(C)(O)CC4)nc3)cc2NC(=O)c2ccc(F)cc2C(F)(F)F)C[C@H](C)N1C` [Example 636, 4-Fluoro-N-[4-fluoro-5-[2-(4-hydroxy-4-methylpiperidin-1-yl)pyrimidin-5-yl]-2-[(3R,5S)-3,4,5-trimethylpiperazin-1-yl]phenyl]-2-(trifluoromethyl)benzamide]: the equilibrium dissociation constant (Kd) was 1.42 nM.
On to `C[C@@H]1CN(c2cc(F)c(-c3ccc4ncsc4c3)cc2NC(=O)c2cn(C)c(=O)cc2C(F)F)C[C@H](C)N1C` [Example 684, N-[5-(1,3-benzothiazol-6-yl)-4-fluoro-2-[(3R,5S)-3,4,5-trimethylpiperazin-1-yl]phenyl]-4-(difluoromethyl)-1-methyl-6-oxopyridine-3-carboxamide], for which the Kd was found to be 7.82 nM.
Same read-out and setting: then `C[C@@H]1CN(c2cc(F)c(-c3nc(C(=O)N4CCOCC4)cs3)cc2NC(=O)c2c[nH]c(=O)cc2C(F)(F)F)C[C@H](C)N1C` [Example 486, N-[4-fluoro-5-[4-(morpholine-4-carbonyl)-1,3-thiazol-2-yl]-2-[(3R,5S)-3,4,5-trimethylpiperazin-1-yl]phenyl]-6-oxo-4-(trifluoromethyl)-1H-pyridine-3-carboxamide], with 2.44 nM; and `CC1CN(c2ccc(-c3cc(NC(=O)c4cn(C)c(=O)cc4C(F)F)c(N4C[C@@H](C)N(C)[C@@H](C)C4)cc3F)cn2)CCO1` (stereo in doubt) [Example 517, 4-(Difluoromethyl)-N-[4-fluoro-5-[6-[(2R)-2-methylmorpholin-4-yl]pyridin-3-yl]-2-[(3S,5R)-3,4,5-trimethylpiperazin-1-yl]phenyl]-1-methyl-6-oxopyridine-3-carboxamide], with 5.97 nM.
The same measure, in the same setting: in the case of `C[C@@H]1CN(c2cc(F)c(-c3cnc(N4CCOCC4)s3)cc2NC(=O)c2c[nH]c(=O)cc2C(F)(F)F)C[C@H](C)N1C` [Example 619, N-[4-fluoro-5-(2-morpholin-4-yl-1,3-thiazol-5-yl)-2-[(3R,5S)-3,4,5-trimethylpiperazin-1-yl]phenyl]-6-oxo-4-(trifluoromethyl)-1H-pyridine-3-carboxamide] it was 0.948 nM; in that of `CC1CN(c2cc(F)c(-c3cnn(CCN4CCOCC4)c3)cc2NC(=O)c2c[nH]c(=O)cc2C(F)(F)F)CCN1C` (stereo in doubt) [Example 714, N-[4-fluoro-5-[1-(2-morpholin-4-ylethyl)pyrazol-4-yl]-2-[(3R)-3,4-dimethylpiperazin-1-yl]phenyl]-6-oxo-4-(trifluoromethyl)-1H-pyridine-3-carboxamide], 2.76 nM; in that of `C[C@@H]1CN(c2cc(F)c(-c3cc(F)c(C(=O)NC4CCCCC4)c(F)c3)cc2NC(=O)c2c[nH]c(=O)cc2C(F)(F)F)C[C@H](C)N1C` [Example 710, N-[5-[4-(cyclohexylcarbamoyl)-3,5-difluorophenyl]-4-fluoro-2-[(3R,5S)-3,4,5-trimethylpiperazin-1-yl]phenyl]-6-oxo-4-(trifluoromethyl)-1H-pyridine-3-carboxamide], 2.03 nM.
Still for that read-out and setting: in the case of `C[C@@H]1CN(c2cc(F)c(-c3ncc(C(=O)N4CCOCC4)s3)cc2NC(=O)c2c[nH]c(=O)cc2C(F)(F)F)C[C@H](C)N1C` [Example 500, N-[4-fluoro-5-[5-(morpholine-4-carbonyl)-1,3-thiazol-2-yl]-2-[(3R,5S)-3,4,5-trimethylpiperazin-1-yl]phenyl]-6-oxo-4-(trifluoromethyl)-1H-pyridine-3-carboxamide] it was 1.85 nM; in that of “N-[4-fluoro-5-[2-[(2R)-2-propan-2-ylmorpholin-4-yl]pyrimidin-5-yl]-2-[(3S,5R)-3,4,5-trimethylpiperazin-1-yl]phenyl]-6-oxo-4-(trifluoromethyl)-1H-pyridine-3-carboxamide [Example 548]”, 0.5 nM.
`C[C@@H]1CN(c2cc(F)c(-c3cc(F)c(C(N)=O)c(F)c3)cc2NC(=O)c2c[nH]c(=O)cc2C(F)F)C[C@H](C)N1C` [Example 659, N-[5-(4-carbamoyl-3,5-difluorophenyl)-4-fluoro-2-[(3R,5S)-3,4,5-trimethylpiperazin-1-yl]phenyl]-4-(difluoromethyl)-6-oxo-1H-pyridine-3-carboxamide]: the dissociation constant (Kd) is 1.93 nM.
For the molecule `C[C@@H]1CN(c2cc(F)c(-c3csc(N4CCOCC4)n3)cc2NC(=O)c2c[nH]c(=O)cc2C(F)(F)F)C[C@H](C)N1C` [Example 616, N-[4-fluoro-5-(2-morpholin-4-yl-1,3-thiazol-4-yl)-2-[(3R,5S)-3,4,5-trimethylpiperazin-1-yl]phenyl]-6-oxo-4-(trifluoromethyl)-1H-pyridine-3-carboxamide], the dissociation constant (Kd) came to 0.748 nM.
Consider `C[C@@H]1CN(c2ccc(-c3cc(NC(=O)c4cn(C)c(=O)cc4C(F)(F)F)c(N4C[C@@H](C)N(C)[C@@H](C)C4)cc3F)cn2)C[C@H](C)O1` [Example 422, N-[4-fluoro-5-[6-[(2R,6S)-2,6-dimethylmorpholin-4-yl]pyridin-3-yl]-2-[(3S,5R)-3,4,5-trimethylpiperazin-1-yl]phenyl]-1-methyl-6-oxo-4-(trifluoromethyl)pyridine-3-carboxamide], for which the dissociation constant Kd was 2.43 nM.
For the molecule `CC(C)OC(=O)N1CC=C(c2cc(NC(=O)c3c[nH]c(=O)cc3C(F)F)c(N3CCN(C)C(C)C3)cc2F)CC1` (stereo in doubt) [Example 724, propan-2-yl 4-[5-[[4-(difluoromethyl)-6-oxo-1H-pyridine-3-carbonyl]amino]-2-fluoro-4-[(3R)-3,4-dimethylpiperazin-1-yl]phenyl]-3,6-dihydro-2H-pyridine-1-carboxylate], the dissociation constant (Kd) was 2.82 nM.
Still for that read-out and setting: in the case of `CC1CN(c2cc(F)c(-c3ccnc(N4CCOCC4)n3)cc2NC(=O)c2c[nH]c(=O)cc2C(F)(F)F)CCN1C` (stereo in doubt) [Example 718, N-[4-fluoro-5-(2-morpholin-4-ylpyrimidin-4-yl)-2-[(3R)-3,4-dimethylpiperazin-1-yl]phenyl]-6-oxo-4-(trifluoromethyl)-1H-pyridine-3-carboxamide] it was 1.09 nM.
